Measurements reported in US9828379B2 (priority 2013, dated 2017).

What was measured:
Experiment in all cases: In vitro competitive activity-based protein profiling (Table 2, % inhibition at 1 μM)
Assay type in all cases: biochemical
[1] = biological target: T1, FAAH (Mus musculus, UniProt O08914); details: read-out: % Inhibition at 1 μM FAAH
T1 sequence (O08914 1-579): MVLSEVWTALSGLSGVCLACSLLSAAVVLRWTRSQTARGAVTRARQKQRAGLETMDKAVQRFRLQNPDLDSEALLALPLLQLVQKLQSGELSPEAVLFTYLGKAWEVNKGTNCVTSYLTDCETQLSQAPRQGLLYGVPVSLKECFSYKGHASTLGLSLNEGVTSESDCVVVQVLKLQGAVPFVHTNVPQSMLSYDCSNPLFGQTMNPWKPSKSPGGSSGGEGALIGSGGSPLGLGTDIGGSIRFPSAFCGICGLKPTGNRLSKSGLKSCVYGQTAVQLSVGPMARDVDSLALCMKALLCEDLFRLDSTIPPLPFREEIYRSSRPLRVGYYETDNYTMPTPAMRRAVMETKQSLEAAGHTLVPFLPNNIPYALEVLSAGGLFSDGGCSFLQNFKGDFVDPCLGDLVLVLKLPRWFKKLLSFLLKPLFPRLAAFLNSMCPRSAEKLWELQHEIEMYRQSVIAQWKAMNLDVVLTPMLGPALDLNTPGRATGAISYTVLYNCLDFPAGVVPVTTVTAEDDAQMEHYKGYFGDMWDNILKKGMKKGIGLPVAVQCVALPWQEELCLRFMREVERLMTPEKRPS
Procedure: (§1) After 30 min, FP—Rh (1.0 μL, 50 μM in DMSO) was added and the mixture was incubated for another 30 min at 37° C. Reactions were quenched with SDS loading buffer (50 μL-4×) and run on SDS-PAGE. Following gel imaging, serine hydrolase activity was determined by measuring fluorescent intensity of gel bands corresponding to MAGL, ABHD6 and FAAH using ImageJ 1.43 u software.
(§2) hMAGL was expressed in HEK293T cells according to previously reported methods (see Niphakis, Long, and Blankman, J. L., et al. (2007) Chem. Biol. 14:1347-1356). Cell lysates were diluted with mock proteomes for use in competitive ABPP experiments.

[2] = biological target: T2, ABHD6 (Mus musculus, UniProt Q8R2Y0); details: read-out: % Inhibition at 1 μM ABHD6
T2 sequence (Q8R2Y0 1-336): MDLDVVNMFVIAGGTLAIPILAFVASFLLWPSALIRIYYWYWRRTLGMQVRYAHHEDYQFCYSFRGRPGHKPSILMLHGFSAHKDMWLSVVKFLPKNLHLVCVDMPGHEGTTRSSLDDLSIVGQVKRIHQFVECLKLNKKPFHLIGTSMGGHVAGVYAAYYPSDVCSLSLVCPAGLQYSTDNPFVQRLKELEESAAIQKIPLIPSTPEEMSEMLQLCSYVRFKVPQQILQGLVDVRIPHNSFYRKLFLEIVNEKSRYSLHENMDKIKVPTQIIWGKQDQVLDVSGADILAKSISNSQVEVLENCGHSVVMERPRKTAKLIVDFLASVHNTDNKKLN
Procedure: as §1, §2

[3] = biological target: T3, MAGL (Mus musculus, UniProt O35678); details: read-out: % Inhibition at 1 μM MAGL
T3 sequence (O35678 1-303): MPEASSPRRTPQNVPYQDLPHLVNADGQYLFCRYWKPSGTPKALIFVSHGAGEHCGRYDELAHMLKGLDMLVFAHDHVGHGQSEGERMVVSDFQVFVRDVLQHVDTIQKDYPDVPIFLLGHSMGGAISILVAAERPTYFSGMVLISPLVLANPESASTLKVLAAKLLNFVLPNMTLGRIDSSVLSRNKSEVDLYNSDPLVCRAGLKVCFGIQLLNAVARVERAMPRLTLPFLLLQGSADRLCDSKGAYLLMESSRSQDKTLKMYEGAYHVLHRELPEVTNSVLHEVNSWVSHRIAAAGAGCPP
Procedure: After 30 min, FP—Rh (1.0 μL, 50 μM in DMSO) was added and the mixture was incubated for another 30 min at 37° C. Reactions were quenched with SDS loading buffer (50 μL-4×) and run on SDS-PAGE.
Cell lysates were diluted with mock proteomes for use in competitive ABPP experiments.

SMILES | inhibition at 1 µM [1] [%] | inhibition at 1 µM [2] [%] | inhibition at 1 µM [3] [%]
CC(=O)N1CCN(c2cccc(CN3CC4CN(C(=O)ON5C(=O)CCC5=O)CC4C3)c2C)CC1 (stereo not drawn) [Example 143, 2,5-dioxopyrrolidin-1-yl 5-[[3-(4-acetylpiperazin-1-yl)-2-methylphenyl]methyl]-octahydropyrrolo[3,4-c]pyrrole-2-carboxylate] | < 25 | < 25 | < 25
CC(C)n1cc(CN2CC3CN(C(=O)ON4C(=O)CCC4=O)CC3C2)c(C2CCN(S(C)(=O)=O)CC2)n1 (stereo not drawn) [Example 120, 2,5-Dioxopyrrolidin-1-yl 5-[[3-(1-methanesulfonylpiperidin-4-yl)-1-(propan-2-yl)-1H-pyrazol-4-yl]methyl]-octahydropyrrolo[3,4-c]pyrrole-2-carboxylate] | < 25 | < 25 | < 25
CC(=O)N1CCN(c2cc(C(C)C)ccc2CN2CC3CN(C(=O)ON4C(=O)CCC4=O)CC3C2)CC1 (stereo not drawn) [Example 99, 2,5-Dioxopyrrolidin-1-yl 5-[[2-(4-acetylpiperazin-1-yl)-4-(propan-2-yl)phenyl]methyl]-octahydropyrrolo[3,4-c]pyrrole-2-carboxylate] | < 25 | < 25 | < 25
O=C(OC(C(F)(F)F)C(F)(F)F)N1CC2CN(Cc3ccc(Cl)cc3N3CCOCC3)CC2C1 (stereo not drawn) [Example 18, 1,1,1,3,3,3-Hexafluoropropan-2-yl 5-[[4-chloro-2-(morpholin-4-yl)phenyl]methyl]-octahydropyrrolo[3,4-c]pyrrole-2-carboxylate] | 25 to 75 | 25 to 75 | > 75
CC1COCCN1c1cc(F)ccc1CN1CC2CN(C(=O)ON3C(=O)CCC3=O)CC2C1 (stereo not drawn) [Example 91, 2,5-Dioxopyrrolidin-1-yl 5-[[4-fluoro-2-(3-methylmorpholin-4-yl)phenyl]methyl]-octahydropyrrolo[3,4-c]pyrrole-2-carboxylate] | < 25 | < 25 | < 25
O=C(ON1C(=O)CCC1=O)N1CC2CN(Cc3ccc(C(=O)N4CCCC4)cc3Cl)CC2C1 (stereo not drawn) [Example 164, 2,5-dioxopyrrolidin-1-yl 5-(2-chloro-4-(pyrrolidine-1-carbonyl)benzyl)-hexahydropyrrolo[3,4-c]pyrrole-2(1H)-carboxylate] | < 25 | 25 to 75 | 25 to 75
CC1COCCN1c1cc(Cl)ccc1CN1CC2CN(C(=O)ON3C(=O)CCC3=O)CC2C1 (stereo not drawn) [Example 95, 2,5-Dioxopyrrolidin-1-yl 5-[[4-chloro-2-(3-methylmorpholin-4-yl)phenyl]methyl]-octahydropyrrolo[3,4-c]pyrrole-2-carboxylate] | < 25 | < 25 | 25 to 75
Cc1c(CN2CC3CN(C(=O)ON4C(=O)CCC4=O)CC3C2)cccc1N1CCC(NS(C)(=O)=O)CC1 (stereo not drawn) [Example 140, 2,5-dioxopyrrolidin-1-yl 5-[[3-(4-methanesulfonamidopiperidin-1-yl)-2-methylphenyl]methyl]-octahydropyrrolo[3,4-c]pyrrole-2-carboxylate] | < 25 | < 25 | 25 to 75
CC(=O)N1CCC(c2nn(C)cc2CN2CC3CN(C(=O)OC(C(F)(F)F)C(F)(F)F)CC3C2)CC1 (stereo not drawn) [Example 52, 1,1,1,3,3,3-Hexafluoropropan-2-yl 5-[[3-(1-acetylpiperidin-4-yl)-1-methyl-1H-pyrazol-4-yl]methyl]-octahydropyrrolo[3,4-c]pyrrole-2-carboxylate] | < 25 | < 25 | 25 to 75
O=C(ON1C(=O)CCC1=O)N1CC2CN(Cc3ccc(Cl)cc3N3CCCC3)CC2C1 (stereo not drawn) [Example 94, 2,5-Dioxopyrrolidin-1-yl 5-[[4-chloro-2-(pyrrolidin-1-yl)phenyl]methyl]-octahydropyrrolo[3,4-c]pyrrole-2-carboxylate] | 25 to 75 | < 25 | 25 to 75
O=C(OC(C(F)(F)F)C(F)(F)F)N1CC2CN(Cc3ccc(C(=O)N4CCOCC4)c(OC(F)(F)F)c3)CC2C1 (stereo not drawn) [Example 191, 1,1,1,3,3,3-hexafluoropropan-2-yl 5-(4-(morpholine-4-carbonyl)-3-(trifluoromethoxy)benzyl)hexahydropyrrolo[3,4-c]pyrrole-2(1H)-carboxylate] | < 25 | < 25 | < 25
CCN1CCN(c2c(C)cccc2CN2CC3CN(C(=O)ON4C(=O)CCC4=O)CC3C2)CC1 (stereo not drawn) [Example 139, 2,5-dioxopyrrolidin-1-yl 5-[[2-(4-ethylpiperazin-1-yl)-3-methylphenyl]methyl]-octahydropyrrolo[3,4-c]pyrrole-2-carboxylate] | < 25 | < 25 | < 25
CC(C)c1ccc(CN2CC3CN(C(=O)ON4C(=O)CCC4=O)CC3C2)c(N2CCCC2)c1 (stereo not drawn) [Example 98, 2,5-Dioxopyrrolidin-1-yl 5-[[4-(propan-2-yl)-2-(pyrrolidin-1-yl)phenyl]methyl]-octahydropyrrolo[3,4-c]pyrrole-2-carboxylate] | < 25 | < 25 | 25 to 75
O=C(ON1C(=O)CCC1=O)N1CC2CN(Cc3ccc(C(=O)N4CCOCC4)cc3Cl)CC2C1 (stereo not drawn) [Example 163, 2,5-dioxopyrrolidin-1-yl 5-(2-chloro-4-(morpholine-4-carbonyl)benzyl)-hexahydropyrrolo[3,4-c]pyrrole-2(1H)-carboxylate] | < 25 | < 25 | < 25
CC(=O)N1CCN(c2ccc(CN3CC4CN(C(=O)ON5C(=O)CCC5=O)CC4C3)c(F)c2)CC1 (stereo not drawn) [Example 101, 2,5-Dioxopyrrolidin-1-yl 5-[[4-(4-acetylpiperazin-1-yl)-2-fluorophenyl]methyl]-octahydropyrrolo[3,4-c]pyrrole-2-carboxylate] | < 25 | < 25 | < 25
Cc1c(CN2CC3CN(C(=O)ON4C(=O)CCC4=O)CC3C2)cccc1N1CCN(C)CC1 (stereo not drawn) [Example 145] | < 25 | < 25 | < 25
O=C(ON1C(=O)CCC1=O)N1CC2CN(Cc3ccc(F)cc3N3CCCC3)CC2C1 (stereo not drawn) [Example 90, 2,5-Dioxopyrrolidin-1-yl 5-[[4-fluoro-2-(pyrrolidin-1-yl)phenyl]methyl]-octahydropyrrolo[3,4-c]pyrrole-2-carboxylate] | 25 to 75 | < 25 | 25 to 75
Cc1cccc(CN2CC3CN(C(=O)ON4C(=O)CCC4=O)CC3C2)c1N1CCCCC1 (stereo not drawn) [Example 105, 2,5-Dioxopyrrolidin-1-yl 5-[[3-methyl-2-(piperidin-1-yl)phenyl]methyl]-octahydropyrrolo[3,4-c]pyrrole-2-carboxylate] | < 25 | < 25 | 25 to 75
CCn1cc(CN2CC3CN(C(=O)OC(C(F)(F)F)C(F)(F)F)CC3C2)c(-c2ccc(N3CCOCC3)cc2)n1 (stereo not drawn) [Example 68, 1,1,1,3,3,3-Hexafluoropropan-2-yl 5-([1-ethyl-3-[4-(morpholin-4-yl)phenyl]-1H-pyrazol-4-yl]methyl)-octahydropyrrolo[3,4-c]pyrrole-2-carboxylate] | < 25 | < 25 | > 75
